Laboratory results reported in patent publication US20250332154A1, “USE OF NAPHTHOQUINE PHOSPHATE IN PREPARATION OF A MEDICAMENT FOR TREATING AUTOIMMUNE DISEASES” (SHANGHAI PHARMACEUTICALS INDUSTRY CO., LTD, priority 2022, published 2025).
Counter-ions that a name gives are not always drawn. Like-named read-outs stand apart in the source and are kept apart here.

How the values were obtained:
[1] = tested on: mouse whole spleen lymphocytes (LPS-induced B cell activation and proliferation); test: LPS-induced lymphocyte proliferation assay (3H-thymidine); assay type: cell-based; conditions: for IC50: LPS 10 μg/ml, 48 hours, 3H-thymidine, read-out: LPS IC50
Procedure: BALB/c mice were sacrificed by cervical dislocation, and spleens were aseptically excised to prepare whole spleen lymphocytes. The cells were adjusted to the required concentration.
A suspension of mouse spleen lymphocytes was inoculated into a 96-well plate at 5×10^5/well, and ConA (final concentration: 1 μg/ml) or LPS (final concentration: 10 μg/ml) and the above 10 concentration gradients of the compound were added. Corresponding cell control wells without ConA and LPS, as well as medicament-free stimulated control wells, were set up. The cells were cultured in a 37° C., 5% CO2 incubator for 48 hours. Eight hours before the end of the culture, ^3H-thymidine was added, and the culture continued until the end of the experiment (i.e., the aforementioned 48 hours). The cells were collected onto glass fiber membranes using a cell collector.
ConA and LPS, as mitogens, stimulated proliferation and differentiation of T and B lymphocytes, respectively. This process is similar to the activation process of lymphocytes in vivo. Therefore, mitogen-induced lymphocyte proliferation is commonly used as an indicator to evaluate functionality of lymphocytes.

[2] = Non-specific cytotoxicity assay (MTT), RAW264.7; assay type: cell-based, mouse; conditions: mouse, RAW264.7 cells
Procedure: RAW264.7 cells were inoculated into a 96-well plate at 1×10^5/well and allowed to adhere to the wall for 6 hours in a 37° C., 5% CO2 incubator. […] A corresponding solvent control (cell control) and a culture medium background control (blank control) were set up. The cells were cultured in a 37° C., 5% CO2 incubator for 48 hours. Fifteen minutes before the end of the culture, 20 μl of 5 mg/ml MTT was added. At the end of the culture, the supernatant was aspirated and discarded, 200 μl DMSO was added to dissolve the crystals.

TNF-α = TNF-α production by LPS-induced RAW264.7 cells (ELISA); assay type: cell-based, mouse; conditions: for production of TNF-α: LPS-induced RAW264.7, in words; for IC50: Mus musculus, LPS 10 μg/ml, RAW264.7
Procedure: RAW264.7 cells were inoculated into a 96-well plate at 1×10^5/well and allowed to adhere to the wall for 6 hours in a 37° C., 5% CO2 incubator. […] After the cells adhered to the wall, the stimulant LPS (final concentration: 10 μg/ml) and the gradient-diluted compounds were added. A corresponding stimulation control and a cell control (without stimulation) were set up. After the end of the culture, the cell culture supernatants were collected, and the levels of TNF-α, IL-1β and IL-6 were measured by ELISA.

IgG = IgG secretion by TLRs-L-stimulated mouse whole spleen lymphocytes (ELISA); assay type: cell-based; conditions: Lymphocyte, 120 h
Procedure: (§1) BALB/c mice were sacrificed by cervical dislocation, and spleens were aseptically excised to prepare whole spleen lymphocytes. The cells were adjusted to 5×10^6 cells/ml. Hydroxychloroquine sulfate was diluted with a 3-fold gradient into 3 concentrations starting from 30 μM: 30, 10 and 3 μM; naphthoquine phosphate was diluted with a 3-fold gradient into 3 concentrations starting from 10 μM: 10, 3 and 1 μM.
(§2) Mouse spleen lymphocytes were inoculated into a 96-well plate at 100 μl/well, and the stimulant TLR4-L (final concentration: 10 μg/ml), TLR7-L (final concentration: 5 μg/ml) or TLR9-L (final concentration: 1 μM) and the compounds diluted with the above concentration gradients were added. A corresponding stimulation control and a cell control (without stimulation) were set up. The cells were cultured in a 37° C., 5% CO2 incubator for 120 hours. After the end of the culture, the cell culture supernatants were collected, and the levels of IgG and IgM were measured by ELISA.

[3] = Non-specific cytotoxicity assay (MTT), mouse spleen lymphocytes; assay type: cell-based; conditions: BALB/c, mouse, mouse whole spleen lymphocytes
Procedure: BALB/c mice were sacrificed by cervical dislocation, and spleens were aseptically excised to prepare whole spleen lymphocytes. The cells were adjusted to the required concentration. The compound concentrations started at 250 μM and was diluted with a 4-fold gradient to obtain 10 concentrations: 250, 62.5, 15.625, 3.906, 0.977, 0.244, 0.061, 0.015, 0.004 and 0.001 μM.
A suspension of mouse spleen lymphocytes was inoculated into a 96-well plate at 8×10^5/well, and the above 10 concentration gradients of the compound were added. A corresponding cell control (i.e. spleen lymphocyte culture system without compound) and a RPMI 1640 culture medium background control (blank culture medium control) were set up. The cells were cultured in a 37° C., 5% CO2 incubator for 48 hours. Four hours before the end of the culture, 20 μl of 5 mg/ml MTT solution was added, and the reaction continued until the end of the culture (i.e. the aforementioned 48 hours). The supernatant was aspirated and discarded, 200 μl DMSO was added to each well to dissolve the crystals. […]. The absorbance value was measured at […] with a microplate reader (Spectra Max 190, Molecular Devices).

IL-10 = IL-10 secretion by TLRs-L-stimulated mouse whole spleen lymphocytes (ELISA); assay type: cell-based; conditions: Lymphocyte, 48 h
Procedure: as §1
as §2, with “48” for “120”, “IL-1β, IL-6,” for “IgG”, “IL-10” for “IgM”

Row | IC50 (TNF-α) [µM] | IC50 (IgG; stimulant TLR9-L 1 μM) [µM] | IC50 (IL-10; stimulant TLR4-L 10 μg/ml) [µM] | IC50 (IL-10; stimulant TLR7-L 5 μg/ml) [µM] | IC50 (IL-10; stimulant TLR9-L 1 μM) [µM] | IC50 (IgG; stimulant TLR4-L 10 μg/ml) [µM] | IC50 (IgG; stimulant TLR7-L 5 μg/ml) [µM] | SMILES | IC50 ([1]; Mus musculus, Lymphocyte) [µM] | effect on LPS-induced B cell activation and proliferation ([1]; in words) | CC50 at 48 h [2] [µM] | production of TNF-α (TNF-α) | CC50 at 48 h [3] [µM] | IC50 ([1]; listed as Hydroxychloroquine Sulfate (Zhongxi Sunve)) [µM]
1 | > 10 | 0.325 | 0.106 | 0.039 | 0.19 |  |  | CC(C)(C)NCc1cc(Nc2ccnc3cc(Cl)ccc23)c2c(c1O)CCCC2.O=P(O)(O)O.O=P(O)(O)O [Naphthoquine Phosphate, Naphthoquine phosphate] | 0.08 | significant inhibitory activity | 8.73 | no significant effect | 1.45 | 
2 | 46.3 | 5.63 | 3.19 | 1.11 | 3.3 | 18.2 | 26.9 | CCN(CCO)CCCC(C)Nc1ccnc2cc(Cl)ccc12 (stereo not shown) [Hydroxychloroquine Sulfate, hydroxychloroquine sulfate] | 14.9 |  | 24.4 | no significant effect | 25.2 | 14.9
